The source of these data is publication PMC4335062, “Data-Driven Prediction and Design of bZIP Coiled-Coil Interactions” (PLoS Computational Biology, 2015).

“And” between values parts separate entries of the source, which are not always exact repeats. Equal values may be shown once. Read-outs that look alike come from different tables or passages of the source. Where no end group is shown, it is not given here.

One assay deals with T1, ATF3 (Homo sapiens, UniProt P18847).
T1 construct: made in house
T1 sequence (P18847 86-149 limits assumed): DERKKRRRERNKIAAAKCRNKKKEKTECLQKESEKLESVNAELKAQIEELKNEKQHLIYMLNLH
The assay is described as follows: Direct-binding FRET assay. The gist of the method: (§1)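 Heterodimer dissociation constants come from fitting donor fluorescence versus acceptor concentration with a coupled-equilibrium model. Curves showing under 15% signal change across 0–1000 nM acceptor were not fitted and are marked NS.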

For another assay, the target named is T2, XBP1 (Homo sapiens, UniProt P17861).
T2 construct: made in house
T2 sequence (P17861 70-133 limits assumed): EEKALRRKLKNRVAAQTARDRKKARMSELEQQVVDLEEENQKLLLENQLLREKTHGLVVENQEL
Kind of assay: Direct-binding FRET assay. The method, boiled down:
as §1

Another assay concerns the target T3, ATF4 (Homo sapiens, UniProt P18848).
T3 construct: made in house
T3 sequence (P18848 278-341 limits assumed): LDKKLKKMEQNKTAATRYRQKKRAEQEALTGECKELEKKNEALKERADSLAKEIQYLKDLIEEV
Kind of assay: Direct-binding FRET assay. The method, boiled down: as §1

The next assay has as its target T4, CREB1 (Homo sapiens, UniProt P16220).
T4 construct: made in house
T4 sequence (P16220 269-327 limits assumed): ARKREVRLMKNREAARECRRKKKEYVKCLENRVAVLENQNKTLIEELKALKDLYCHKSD
Kind of assay: Direct-binding FRET assay. The gist of the method:
as §1

The target in a further assay is NFE2L1 (Homo sapiens, UniProt Q14494). The assay is described as follows: FRET or BRET; direct-binding FRET in 384-well plates; rhodamine-labelled design (acceptor) titrated 0 to 1 uM into 10 nM fluorescein-labelled bZIP (donor); 150 mM KCl, 50 mM potassium phosphate pH 7.4, 0.1% Tween-20, 0.1% BSA; 4 °C. In general terms: BRET reads energy transfer from a luciferase to a nearby fluorophore.
Chain of NFE2L1 (Q14494 whole entry): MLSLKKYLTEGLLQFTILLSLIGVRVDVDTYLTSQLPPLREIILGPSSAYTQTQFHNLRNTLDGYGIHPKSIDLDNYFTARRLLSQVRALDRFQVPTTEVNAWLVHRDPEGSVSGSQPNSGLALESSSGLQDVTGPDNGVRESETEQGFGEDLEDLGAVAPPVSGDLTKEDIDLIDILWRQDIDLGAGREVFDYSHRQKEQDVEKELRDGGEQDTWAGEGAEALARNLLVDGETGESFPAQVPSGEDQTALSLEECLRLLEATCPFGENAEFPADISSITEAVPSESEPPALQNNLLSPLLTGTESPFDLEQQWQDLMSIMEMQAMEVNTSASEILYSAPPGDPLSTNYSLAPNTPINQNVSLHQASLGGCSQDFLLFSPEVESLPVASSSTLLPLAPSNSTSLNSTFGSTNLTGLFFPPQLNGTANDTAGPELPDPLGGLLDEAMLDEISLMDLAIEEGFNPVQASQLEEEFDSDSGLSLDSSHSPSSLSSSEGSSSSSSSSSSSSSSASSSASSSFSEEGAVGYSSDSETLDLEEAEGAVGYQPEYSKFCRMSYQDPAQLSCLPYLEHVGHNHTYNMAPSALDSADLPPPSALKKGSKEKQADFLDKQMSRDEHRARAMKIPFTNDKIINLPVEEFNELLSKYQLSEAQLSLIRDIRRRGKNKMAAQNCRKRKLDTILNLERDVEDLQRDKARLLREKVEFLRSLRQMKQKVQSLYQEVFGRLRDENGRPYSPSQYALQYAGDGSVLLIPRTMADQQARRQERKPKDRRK

Another assay concerns the target ATF2 (human) (UniProt P15336). The assay is described as above.
The target of assay [1] is ATF4 (human) (UniProt P18848). The description is as above.
Chain of ATF4 (human) (P18848 whole entry): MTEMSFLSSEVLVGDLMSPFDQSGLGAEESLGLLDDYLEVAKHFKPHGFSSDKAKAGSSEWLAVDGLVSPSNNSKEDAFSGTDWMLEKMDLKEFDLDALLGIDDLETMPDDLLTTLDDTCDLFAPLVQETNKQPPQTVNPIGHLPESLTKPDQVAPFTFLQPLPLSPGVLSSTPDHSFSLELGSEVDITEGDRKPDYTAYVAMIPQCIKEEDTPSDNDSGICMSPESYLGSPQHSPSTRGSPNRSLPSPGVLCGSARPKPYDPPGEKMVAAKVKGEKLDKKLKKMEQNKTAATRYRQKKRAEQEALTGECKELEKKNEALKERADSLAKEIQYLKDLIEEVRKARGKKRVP
A further assay addresses ATF5 (human) (UniProt Q9Y2D1). Described as above.
The target in assay [2] is NFE2 (human) (UniProt Q16621). The assay is described as follows: FRET or BRET; direct-binding FRET in 384-well plates; rhodamine-labelled design (acceptor) titrated 0 to 1 uM into 10 nM fluorescein-labelled bZIP (donor); 150 mM KCl, 50 mM potassium phosphate pH 7.4, 0.1% Tween-20, 0.1% BSA; 37 °C.
Chain of NFE2 (human) (Q16621 whole entry): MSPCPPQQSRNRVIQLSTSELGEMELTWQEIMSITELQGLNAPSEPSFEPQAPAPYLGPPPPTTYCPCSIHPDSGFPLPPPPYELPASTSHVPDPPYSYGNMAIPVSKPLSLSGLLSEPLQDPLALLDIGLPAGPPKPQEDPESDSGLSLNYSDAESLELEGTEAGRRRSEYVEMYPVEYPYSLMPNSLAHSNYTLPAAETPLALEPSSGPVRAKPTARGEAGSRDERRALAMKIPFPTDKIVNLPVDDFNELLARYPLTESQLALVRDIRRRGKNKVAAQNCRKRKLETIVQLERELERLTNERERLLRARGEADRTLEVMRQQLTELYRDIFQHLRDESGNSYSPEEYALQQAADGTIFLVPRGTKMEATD
Assay [3] has as its target ATF4 (human) (UniProt P18848). Described as above.
Another assay has as its target MAFF (human) (UniProt Q9ULX9). Kind of assay: FRET or BRET; direct-binding FRET in 384-well plates; rhodamine-labelled design (acceptor) titrated 0 to 1 uM into 10 nM fluorescein-labelled bZIP (donor); 150 mM KCl, 50 mM potassium phosphate pH 7.4, 0.1% Tween-20, 0.1% BSA; 23 °C.
Assay [4] deals with ATF4 (human) (UniProt P18848). The description is as above.
For assay [5], the target named is NFE2 (human) (UniProt Q16621). The assay is described as above.
Where [6] appears, read: 4°C, C-terminal fluorescein design as donor, TAMRA target titrated, read-out: Kd.
Where [7] appears, read: 4°C, C-terminal rhodamine design, mean or single, read-out: Kd.
[8] abbreviates: 4°C, N-terminal rhodamine design, mean or single, read-out: Kd.
Where [9] appears, read: 23°C, C-terminal fluorescein design as donor, TAMRA target titrated, read-out: Kd.
[10] abbreviates: 23°C, C-terminal rhodamine design, mean or single, read-out: Kd.
[11] abbreviates: 23°C, N-terminal rhodamine design, mean or single, read-out: Kd.
The mark [12] stands for this setting: 37°C, C-terminal fluorescein design as donor, TAMRA target titrated, read-out: Kd.
Where [13] appears, read: 37°C, C-terminal rhodamine design, mean or single, read-out: Kd.
The mark [14] stands for this setting: 37°C, N-terminal rhodamine design, mean or single, read-out: Kd.
Where [15] appears, read: 23°C, N-terminal rhodamine design, repeat 1, read-out: Kd.
[16] abbreviates: 23°C, N-terminal rhodamine design, repeat 2, read-out: Kd.
The mark [17] stands for this setting: 4°C, N-terminal rhodamine design, repeat 1, read-out: Kd.
[18] abbreviates: 4°C, N-terminal rhodamine design, repeat 2, read-out: Kd.
The mark [19] stands for this setting: 4°C, C-terminal rhodamine design, repeat 1, read-out: Kd.
[20] abbreviates: 23°C, C-terminal rhodamine design, repeat 1, read-out: Kd.
The mark [21] stands for this setting: 37°C, C-terminal rhodamine design, repeat 1, read-out: Kd.
Setting [22] is: 4°C, C-terminal fluorescein design as donor, TAMRA target titrated.
Where [23] appears, read: 4°C, N-terminal rhodamine design, mean or single.
The mark [24] stands for this setting: 23°C, C-terminal fluorescein design as donor, TAMRA target titrated.
Where [25] appears, read: 23°C, C-terminal rhodamine design, repeat 1.
[26] abbreviates: 23°C, N-terminal rhodamine design, mean or single.
Where [27] appears, read: 37°C, C-terminal fluorescein design as donor, TAMRA target titrated.
Where [28] appears, read: 37°C, N-terminal rhodamine design, mean or single.
Where [29] appears, read: 4°C, C-terminal rhodamine design, repeat 1.

Chain of ATF5 (human) (Q9Y2D1 whole entry): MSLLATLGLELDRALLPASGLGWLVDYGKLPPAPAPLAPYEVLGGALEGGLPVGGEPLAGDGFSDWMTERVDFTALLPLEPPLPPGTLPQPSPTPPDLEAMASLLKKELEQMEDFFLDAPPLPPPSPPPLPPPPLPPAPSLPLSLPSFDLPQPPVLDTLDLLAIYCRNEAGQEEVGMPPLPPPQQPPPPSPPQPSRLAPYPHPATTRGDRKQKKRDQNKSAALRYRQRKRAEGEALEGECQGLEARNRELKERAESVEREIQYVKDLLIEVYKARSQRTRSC
Chain of MAFF (human) (Q9ULX9 whole entry): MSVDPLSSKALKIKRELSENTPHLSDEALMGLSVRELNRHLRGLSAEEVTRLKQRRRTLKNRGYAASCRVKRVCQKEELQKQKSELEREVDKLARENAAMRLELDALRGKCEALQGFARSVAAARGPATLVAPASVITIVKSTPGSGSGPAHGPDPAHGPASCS
Chain of ATF2 (human) (P15336 whole entry): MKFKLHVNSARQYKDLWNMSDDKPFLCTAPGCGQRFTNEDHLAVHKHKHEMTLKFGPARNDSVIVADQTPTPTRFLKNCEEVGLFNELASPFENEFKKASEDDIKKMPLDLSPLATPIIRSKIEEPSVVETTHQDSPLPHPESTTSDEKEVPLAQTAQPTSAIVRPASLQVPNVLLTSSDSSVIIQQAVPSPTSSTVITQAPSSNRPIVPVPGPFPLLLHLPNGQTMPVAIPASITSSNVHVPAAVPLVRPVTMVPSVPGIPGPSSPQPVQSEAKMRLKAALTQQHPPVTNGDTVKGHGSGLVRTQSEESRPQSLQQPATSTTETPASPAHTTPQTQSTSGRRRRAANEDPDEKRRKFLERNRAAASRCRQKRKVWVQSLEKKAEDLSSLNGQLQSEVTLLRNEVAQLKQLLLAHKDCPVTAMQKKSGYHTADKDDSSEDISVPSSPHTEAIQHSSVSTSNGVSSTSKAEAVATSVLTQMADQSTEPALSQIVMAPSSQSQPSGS

Turning to “EREAQLENRVAHLKEKNQELKAQNLHLKEALSEAQNRNQELKNDA [XBP1-d1]”, the Kd on ATF3 (setting [6]), on ATF3 (setting [7]), at ATF3 (setting [8]), at ATF3 (setting [9]), at ATF3 (setting [10]) and on ATF3 (setting [11]) was > 1000 nM each time. Besides, the Kd at ATF3 (setting [12]) is > 1000 nM; at ATF3 (setting [13]), > 1000 nM; on ATF3 (setting [14]) it was > 1000 nM; at XBP1 (setting [15]) it was > 1000 nM; at XBP1 (setting [16]) it was > 1000 nM; at XBP1 (23°C, N-terminal rhodamine design, repeat 3, read-out: Kd) it was > 1000 nM. Moreover, the Kd at ATF4 (setting [7]), on ATF4 (setting [8]), at ATF4 (setting [10]), on ATF4 (setting [11]), on ATF4 (setting [13]) and at ATF4 (setting [14]) was > 1000 nM each time. Further, the Kd is > 5000 nM at CREB1 (setting [7]); > 1000 nM on CREB1 (setting [8]); > 1000 nM at CREB1 (setting [10]); > 1000 nM at CREB1 (setting [11]); > 1000 nM on CREB1 (setting [13]); > 1000 nM at CREB1 (setting [14]).
In the case of “KRIAYLRQRIAELRNENHVLESRIQRMEKEKDALQQDRDHLEYEL [ATF5-d1]”, the Kd on ATF3 (setting [7]) is > 5000 nM; at ATF3 (setting [8]), > 1000 nM; on ATF3 (setting [10]), > 5000 nM; at ATF3 (setting [11]), > 1000 nM; on ATF3 (setting [13]), > 1000 nM; at ATF3 (setting [14]) it was > 1000 nM. Also, the Kd on XBP1 (setting [7]) was > 5000 nM; at XBP1 (setting [8]), > 5000 nM; at XBP1 (setting [10]) it was > 1000 nM; at XBP1 (setting [11]), > 5000 nM; on XBP1 (setting [13]), > 1000 nM; at XBP1 (setting [14]), > 5000 nM. In addition, the Kd on ATF4 (setting [7]) is 1 nM; at ATF4 (setting [8]), > 1000 nM; at ATF4 (setting [17]), > 1000 nM; at ATF4 (setting [18]) it was > 1000 nM; on ATF4 (4°C, N-terminal rhodamine design, repeat 3, read-out: Kd), > 1000 nM; at ATF4 (setting [10]), 1 nM. For the same molecule, the Kd at ATF4 (setting [15]) was > 5000 nM; on ATF4 (setting [16]), > 5000 nM; at CREB1 (setting [7]) it was 133 nM; on CREB1 (setting [8]), 506 nM; on CREB1 (setting [10]) it was 589 nM; at CREB1 (setting [11]) it was > 5000 nM. Also, the Kd at CREB1 (setting [14]) is > 1000 nM.
Turning to “NQIKTLRTRLSKLRKDNLQLEKDIANLERKAKDLRAEKEQLEYEL [ATF4-d1]”, the Kd on ATF3 (setting [19]), at ATF3 (setting [8]), on ATF3 (setting [9]), on ATF3 (setting [20]), at ATF3 (setting [11]) and at ATF3 (setting [12]) was > 1000 nM each time. The Kd on ATF3 (setting [21]), on ATF3 (setting [14]), at XBP1 (setting [19]), at XBP1 (setting [8]), on XBP1 (setting [20]) and at XBP1 (setting [11]) was > 1000 nM throughout. Further, the Kd at XBP1 (setting [21]) is > 1000 nM; at XBP1 (setting [14]), > 1000 nM; at ATF4 (setting [6]), 2.3 nM; at ATF4 (setting [7]), 1 nM; on ATF4 (setting [17]) it was > 5000 nM; on ATF4 (setting [18]), > 5000 nM. The Kd was 3.7 nM at ATF4 (setting [9]); 1 nM at ATF4 (setting [10]); 10 nM on ATF4 (setting [12]); > 5000 nM at CREB1 (setting [6]); > 1000 nM on CREB1 (setting [19]); > 5000 nM on CREB1 (setting [8]). Besides, the Kd at CREB1 (setting [9]) was > 1000 nM; on CREB1 (setting [20]), > 1000 nM; on CREB1 (setting [11]), > 5000 nM; at CREB1 (setting [12]), > 1000 nM; at CREB1 (setting [21]) it was > 5000 nM; at CREB1 (setting [14]) it was > 1000 nM.
As to “SIAATLEKEEANLEKMNKKLAAEIESLLKEKDKLESVLNYHE [JUN-d1]”, the Kd on ATF3, at ATF3 (setting [22]), at ATF3 (setting [23]), on ATF3 (setting [24]), at ATF3 (setting [25]) and at ATF3 (setting [26]) was > 1000 nM in each case. The dissociation constant Kd on ATF3 (setting [27]), on ATF3 (setting [28]), on XBP1, on XBP1 (setting [29]), at XBP1 (setting [23]) and at XBP1 (setting [25]) was > 1000 nM in each case. The Kd at XBP1 (setting [26]) was > 1000 nM; at XBP1 (setting [28]), > 1000 nM; at ATF4 (Kd, 4°C, N-terminal rhodamine design, mean or single) it was 592 nM; on ATF4 (Kd, 23°C, C-terminal fluorescein design as donor, TAMRA target titrated) it was 40.1 nM; on ATF4 (Kd, 23°C, N-terminal rhodamine design, mean or single), > 5000 nM; on ATF4 (Kd, 37°C, C-terminal fluorescein design as donor, TAMRA target titrated) it was 441 nM. For the same molecule, the Kd on ATF4 (Kd, 37°C, C-terminal rhodamine design, mean or single) is 543 nM; on ATF4 (Kd, 37°C, N-terminal rhodamine design, mean or single), > 1000 nM; at CREB1, > 1000 nM; at CREB1 (setting [22]), > 1000 nM; at CREB1 (setting [29]), > 1000 nM; at CREB1 (setting [23]), > 1000 nM. Further, the Kd at CREB1 (setting [24]), at CREB1 (setting [25]), on CREB1 (setting [26]), on CREB1 (setting [27]) and at CREB1 (setting [28]) was > 1000 nM in each case.

B1: ATF4-d1 labeled at the C-terminus (designed binder)
chain: GESKEYKKGSGSNQIKTLRTRLSKLRKDNLQLEKDIANLERKAKDLRAEKEQLEYELGC
modifications: also: C59 label by assay: Rhodamine Red C2-maleimide or fluorescein-5-maleimide
notes: solubility linker after the His6 tag; added to the C-terminus for labeling; one molecule for the rhodamine- and the fluorescein-labelled form; the assay tells which label stood there; also called ATF4-d1-Rhodamine; ATF4-d1-FITC; source: E. coli RP3098, purified (Ni-NTA under denaturing conditions, reverse-phase HPLC)
In the case of B1, the Kd with NFE2L1 is > 5000 nM; with ATF2 (human) it was 1000 nM; with ATF4 (human) [1] it was 1 nM; with ATF5 (human), > 5000 nM; with NFE2 (human) [2] it was 2920 nM; in the assay with ATF4 (human) [3], 11.3 nM and 9.9 nM and 6.8 nM. The figures for the Kd with MAFF (human), in the assay with ATF4 (human) [4] and in the assay with NFE2 (human) [5] were 623 nM, 1 nM and > 5000 nM, respectively.

B2: ATF5-d1 labeled at the C-terminus (designed binder)
chain: GESKEYKKGSGSKRIAYLRQRIAELRNENHVLESRIQRMEKEKDALQQDRDHLEYELGC(Rhodamine Red C2‑maleimide)
modifications: not fully specified
With B2, the dissociation constant Kd with NFE2L1 was > 5000 nM; with ATF2 (human) it was > 5000 nM; with ATF4 (human) [1], 1 nM; with ATF5 (human), 1.1 nM and 1.2 nM and 1 nM; in the assay with NFE2 (human) [2] it was > 5000 nM; with ATF4 (human) [3], 4.8 nM and 4 nM and 6 nM. Also, the Kd with MAFF (human) was > 5000 nM; with ATF4 (human) [4] it was 1 nM; with NFE2 (human) [5] it was > 5000 nM.

Usually Kd stands for a measure of binding affinity in units of concentration.
